{"source": "patent US11058703B2", "about": "“Application of triacetyl-3-hydroxyphenyladenosine in preparation of pharmaceutical drug for preventing or treating non-alcoholic fatty liver disease” (priority 2015, dated 2021)", "key": {"[1]": {"system": "golden hamster with non-alcoholic fatty liver disease induced by high-fat diet", "test": "Lipid content in liver tissue of golden hamster with non-alcoholic fatty liver disease induced by high-fat diet", "assay_type": "in vivo, Syrian golden hamster", "settings": "n = 10", "method": "100 mg liver tissue was accurately weighed, and added with a triglyceride detection lysate, the tissue was homogenized by a homogenizer in an ice bath to no significant tissue mass, placed on ice for 5 min, transferred to a 1.5 ml centrifuge tube, and centrifuged at 14000 g for 10 min at 4° C., the supernatant was transferred and a portion of the supernatant was taken for protein quantification, and detected for its lipid content according to the instructions of the TC and TG detection kits."}, "[2]": {"system": "golden hamster with non-alcoholic fatty liver disease induced by high-fat diet", "test": "Body weight and liver coefficient of golden hamster with non-alcoholic fatty liver disease induced by high-fat diet", "assay_type": "in vivo, Syrian golden hamster", "settings": "n = 10, mean ± standard error", "method": "The animals were fasted overnight before the end of the experiment, anesthetized by intraperitoneal injection of 3% pentobarbital sodium, the abdominal cavity was exposed, and the liver was rapidly separated after blood was taken from the aorta abdominalis. One liver lobe was preserved, and two pieces of 1×1 cm^3 pieces were cut at a fixed site, one piece was embedded in OCT, quickly frozen in liquid nitrogen, and stored in liquid nitrogen or at −80° C.; and the other piece was placed in a 4% paraformaldehyde stationary liquid and stored at 4° C."}, "[3]": {"system": "golden hamster with non-alcoholic fatty liver disease induced by high-fat diet", "test": "Serum lipid indexes of golden hamster with non-alcoholic fatty liver disease induced by high-fat diet", "assay_type": "in vivo, Syrian golden hamster", "settings": "n = 10; for LDL-C: calculated LDL=TC-HDL-0.2TG", "quoted_text": "(§1) After 5 days of adaptive feeding, animals were randomly divided into a normal control group (n=15), a high-fat diet group (n=15), an IMMH007 low-dose group (25 mg/kg, n=15), an IMMH007 medium-dose group (50 mg/kg, n=15), and an IMMH007 high-dose group (100 mg/kg, n=15), and given intragastric administration twice daily.\n(§2) The animals were fasted for 12 hours, and 0.5 ml blood was collected from the angular vein and allowed to stand for 60 min, and centrifuged at 6000 g for 10 min, and the supernatant was aspirated as much as possible, and then centrifuged at 6000 g for 10 min. The absorbance values were measured according to the instructions of the total cholesterol (TC), triglycerides (TG), aspartate aminotransferase (AST), and alanine aminotransferase (ALT) kits, and the concentration of each index was calculated. 50 ul serum was mixed with 50 ul PEG6000 in a ratio of 1:1, vortexed uniformly, allowed to stand for 10 min, and centrifuged at 1900 g for 20 min at room temperature, and the supernatant was carefully pipetted, stored at 4° C., and measured for high density lipoprotein cholesterol (HDL-C) according to the instructions of the total cholesterol (TC) kit. The plasma low density lipoprotein (LDL) level was calculated by subtracting HDL-C and 0.2-fold TG levels from plasma total cholesterol TC, ie, LDL=TC-HLD-0.2TG."}, "[4]": {"system": "golden hamster with non-alcoholic fatty liver disease induced by high-fat diet", "test": "Liver function (serum ALT, AST) of golden hamster with non-alcoholic fatty liver disease induced by high-fat diet", "settings": "n = 10; for GPT: serum ALT; for GOT: serum AST", "quoted_text": "as §1, §2"}, "[5]": {"system": "golden hamster with non-alcoholic fatty liver disease induced by high-fat diet", "settings": "in vivo", "quoted_text": "as §1, §2"}}, "data": [{"smiles": "CC(=O)OCC1OC(n2cnc3c(Nc4cccc(O)c4)ncnc32)C(OC(C)=O)C1OC(C)=O", "note": "(stereo not shown) [IMM-H007, triacetyl-3-hydroxyphenyladenosine]", "values": [{"measurement": "TC", "setting": "[1]; IMM-H007 50 mg/kg", "value": "2.8 ± 0.8", "unit": "µmol/g protein"}, {"measurement": "TG", "setting": "[1]; IMM-H007 50 mg/kg", "value": "3.6 ± 0.1", "unit": "µmol/g protein"}, {"measurement": "TC", "setting": "[1]; IMM-H007 100 mg/kg", "value": "2.4 ± 0.4", "unit": "µmol/g protein"}, {"measurement": "TG", "setting": "[1]; IMM-H007 100 mg/kg", "value": "3.3 ± 0.1", "unit": "µmol/g protein"}, {"measurement": "TC", "setting": "[1]; IMM-H007 200 mg/kg", "value": "1.8 ± 0.8", "unit": "µmol/g protein"}, {"measurement": "TG", "setting": "[1]; IMM-H007 200 mg/kg", "value": "2.8 ± 0.1", "unit": "µmol/g protein"}, {"measurement": "Body Weight", "setting": "[2]; IMM-H007 50 mg/kg", "value": "170 ± 11"}, {"measurement": "Liver Organ Coefficient", "setting": "[2]; IMM-H007 50 mg/kg", "value": "0.0313 ± 0.002"}, {"measurement": "Liver Organ Coefficient", "setting": "[2]; IMM-H007 100 mg/kg", "value": "0.0291 ± 0.003"}, {"measurement": "Body Weight", "setting": "[2]; IMM-H007 100 mg/kg, in g (unit assumed)", "value": "177 ± 9"}, {"measurement": "Body Weight", "setting": "[2]; IMM-H007 200 mg/kg", "value": "166 ± 12"}, {"measurement": "Liver Organ Coefficient", "setting": "[2]; IMM-H007 200 mg/kg", "value": "0.0298 ± 0.002"}, {"measurement": "FFA", "setting": "[3]; IMM-H007 50 mg/kg", "value": "2324.6 ± 783.4", "unit": "μEq/L"}, {"measurement": "HDL-C", "setting": "[3]; IMM-H007 50 mg/kg", "value": "2.8 ± 0.4", "unit": "mmol/L"}, {"measurement": "TC", "setting": "[3]; IMM-H007 50 mg/kg", "value": "7.9 ± 1.0", "unit": "mmol/L"}, {"measurement": "TG", "setting": "[3]; IMM-H007 50 mg/kg", "value": "4.7 ± 1.9", "unit": "mmol/L"}, {"measurement": "FFA", "setting": "[3]; IMM-H007 100 mg/kg", "value": "1889.5 ± 386.5", "unit": "μEq/L"}, {"measurement": "HDL-C", "setting": "[3]; IMM-H007 100 mg/kg", "value": "2.8 ± 0.2", "unit": "mmol/L"}, {"measurement": "TC", "setting": "[3]; IMM-H007 100 mg/kg", "value": "7.0 ± 1.0", "unit": "mmol/L"}, {"measurement": "TG", "setting": "[3]; IMM-H007 100 mg/kg", "value": "4.3 ± 1.4", "unit": "mmol/L"}, {"measurement": "FFA", "setting": "[3]; IMM-H007 200 mg/kg", "value": "1497.6 ± 326.2", "unit": "μEq/L"}, {"measurement": "HDL-C", "setting": "[3]; IMM-H007 200 mg/kg", "value": "2.6 ± 0.5", "unit": "mmol/L"}, {"measurement": "TC", "setting": "[3]; IMM-H007 200 mg/kg", "value": "6.7 ± 1.0", "unit": "mmol/L"}, {"measurement": "TG", "setting": "[3]; IMM-H007 200 mg/kg", "value": "2.7 ± 0.8", "unit": "mmol/L"}, {"measurement": "LDL-C", "setting": "[3]; IMM-H007 50 mg/kg", "value": "4.1 ± 1.2", "unit": "mmol/L"}, {"measurement": "LDL-C", "setting": "[3]; IMM-H007 100 mg/kg", "value": "4.0 ± 0.7", "unit": "mmol/L"}, {"measurement": "LDL-C", "setting": "[3]; IMM-H007 200 mg/kg", "value": "3.3 ± 0.5", "unit": "mmol/L"}, {"measurement": "GPT", "setting": "[4]; IMM-H007 50 mg/kg", "value": "21.1 ± 5.2", "unit": "U/L"}, {"measurement": "GPT", "setting": "[4]; IMM-H007 100 mg/kg", "value": "20.9 ± 8.0", "unit": "U/L"}, {"measurement": "GPT", "setting": "[4]; IMM-H007 200 mg/kg", "value": "12.4 ± 3.1", "unit": "U/L"}, {"measurement": "GOT", "setting": "[4]; IMM-H007 50 mg/kg", "value": "9.4 ± 1.7", "unit": "U/L"}, {"measurement": "GOT", "setting": "[4]; IMM-H007 100 mg/kg", "value": "8.4 ± 2.3", "unit": "U/L"}, {"measurement": "GOT", "setting": "[4]; IMM-H007 200 mg/kg", "value": "7.2 ± 2.1", "unit": "U/L"}, {"measurement": "Effect on the liver as concluded from serum ALT and AST", "setting": "[5]", "value": "good hepatic protective effect"}]}]}
